Values of other authors as cited in US8735374B2, “Oral mucoadhesive dosage form” (Intelgenx Corp., priority 2009, dated 2014).
“And” between values parts separate entries of the source, which are not always exact repeats. Identical values can stand only once.

Conditions: oral administration; first pass hepatic metabolism, high lipid solubility

## CCCCCc1cc(O)c2c(c1)OC(C)(C)[C@@H]1CCC(C)=C[C@@H]21 [THC, Δ^9-tetrahydrocannabinol]
  portion of an administered dose that reaches systemic circulation: 10 to 20% and 10-20%
